# Source: PubChem BioAssay (NCI)
#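 Interpolation was linear, between the two tested concentrations surrounding the appropriate level; five concentrations were tested over 48 hours in 96-well plates. The concentration for 50% growth inhibition is given as GI50. The concentration for full growth arrest is given as TGI.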
# How the values were obtained:
# Experiment in all cases: inhibition of tumour cell growth, NCI panel, 48 h
# SW-620 colon = test system: SW-620 colon
# K-562 leukemia = test system: K-562 leukemia
# SR leukemia = test system: SR leukemia
# NCI/ADR-RES ovarian = test system: NCI/ADR-RES ovarian
# OVCAR-8 ovarian = test system: OVCAR-8 ovarian
# M14 melanoma = test system: M14 melanoma
# MDA-MB-231 breast = test system: MDA-MB-231 breast
# UACC-257 melanoma = test system: UACC-257 melanoma
# NCI-H460 lung = test system: NCI-H460 lung
# HCT-116 colon = test system: HCT-116 colon
# MDA-MB-468 breast = test system: MDA-MB-468 breast
# U251 CNS = test system: U251 CNS
# LOX IMVI melanoma = test system: LOX IMVI melanoma
# A549 NSCLC = test system: A549 NSCLC
# SK-OV-3 ovarian = test system: SK-OV-3 ovarian
# ACHN renal = test system: ACHN renal
# MALME-3M melanoma = test system: MALME-3M melanoma
# SK-MEL-28 melanoma = test system: SK-MEL-28 melanoma
# MOLT-4 leukemia = test system: MOLT-4 leukemia
# OVCAR-4 ovarian = test system: OVCAR-4 ovarian
# KM12 colon = test system: KM12 colon
# PC-3 prostate = test system: PC-3 prostate
# OVCAR-3 ovarian = test system: OVCAR-3 ovarian
# BT-549 breast = test system: BT-549 breast
# SN12C renal = test system: SN12C renal
# SK-MEL-2 melanoma = test system: SK-MEL-2 melanoma
# HOP-92 NSCLC = test system: HOP-92 NSCLC
# TK-10 renal = test system: TK-10 renal
# T-47D breast = test system: T-47D breast
# SNB-19 CNS = test system: SNB-19 CNS
# RPMI-8226 leukemia = test system: RPMI-8226 leukemia
# UO-31 renal = test system: UO-31 renal
# NCI-H23 lung = test system: NCI-H23 lung
# DU-145 prostate = test system: DU-145 prostate
# CAKI-1 renal = test system: CAKI-1 renal
# SF-539 CNS = test system: SF-539 CNS
# SK-MEL-5 melanoma = test system: SK-MEL-5 melanoma
# HOP-62 NSCLC = test system: HOP-62 NSCLC
# SF-295 CNS = test system: SF-295 CNS
# A498 renal = test system: A498 renal
# HS 578T breast = test system: HS 578T breast
# HCT-15 colon = test system: HCT-15 colon
# HL-60(TB) leukemia = test system: HL-60(TB) leukemia
# NCI-H522 lung = test system: NCI-H522 lung
# RXF 393 renal = test system: RXF 393 renal
# SNB-75 CNS = test system: SNB-75 CNS
# IGROV1 ovarian = test system: IGROV1 ovarian
# SF-268 CNS = test system: SF-268 CNS
# MDA-MB-435 = test system: MDA-MB-435
# OVCAR-5 ovarian = test system: OVCAR-5 ovarian
# NCI-H226 lung = test system: NCI-H226 lung
# 786-0 renal = test system: 786-0 renal
# COLO 205 colon = test system: COLO 205 colon
# HCC-2998 colon = test system: HCC-2998 colon
# CCRF-CEM leukemia = test system: CCRF-CEM leukemia
# UACC-62 melanoma = test system: UACC-62 melanoma
# EKVX NSCLC = test system: EKVX NSCLC
# HT29 colon = test system: HT29 colon
# MCF7 breast = test system: MCF7 breast
smiles,measurement,setting,value
O=C(N/N=C/c1ccsc1)c1[nH]c2ccc(Br)cc2c1-c1ccccc1,GI50,SW-620 colon,204 nM
same,TGI,SW-620 colon,19100 nM
same,GI50,K-562 leukemia,103 nM
same,TGI,K-562 leukemia,> 44000 nM
same,GI50,SR leukemia,255 nM
same,TGI,SR leukemia,63500 nM
same,GI50,NCI/ADR-RES ovarian,173 nM
same,TGI,NCI/ADR-RES ovarian,549 nM
same,GI50,OVCAR-8 ovarian,313 nM
same,TGI,OVCAR-8 ovarian,10300 nM
same,GI50,M14 melanoma,267 nM
same,TGI,M14 melanoma,13100 nM
same,GI50,MDA-MB-231 breast,792 nM
same,TGI,MDA-MB-231 breast,13100 nM
same,GI50,UACC-257 melanoma,6930 nM
same,TGI,UACC-257 melanoma,41300 nM
same,GI50,NCI-H460 lung,156 nM
same,TGI,NCI-H460 lung,10600 nM
same,GI50,HCT-116 colon,190 nM
same,TGI,HCT-116 colon,4410 nM
same,GI50,MDA-MB-468 breast,255 nM
same,TGI,MDA-MB-468 breast,3890 nM
same,GI50,U251 CNS,724 nM
same,TGI,U251 CNS,18900 nM
same,GI50,LOX IMVI melanoma,217 nM
same,TGI,LOX IMVI melanoma,13300 nM
same,GI50,A549 NSCLC,460 nM
same,TGI,A549 NSCLC,> 100000 nM
same,GI50,SK-OV-3 ovarian,2050 nM
same,TGI,SK-OV-3 ovarian,27200 nM
same,GI50,ACHN renal,585 nM
same,TGI,ACHN renal,27700 nM
same,GI50,MALME-3M melanoma,6990 nM
same,TGI,MALME-3M melanoma,26100 nM
same,GI50,SK-MEL-28 melanoma,4190 nM
same,TGI,SK-MEL-28 melanoma,22600 nM
same,GI50,MOLT-4 leukemia,386 nM
same,TGI,MOLT-4 leukemia,18400 nM
same,GI50,OVCAR-4 ovarian,6100 nM
same,TGI,OVCAR-4 ovarian,> 66600 nM
same,GI50,KM12 colon,327 nM
same,TGI,KM12 colon,14100 nM
same,GI50,PC-3 prostate,612 nM
same,TGI,PC-3 prostate,24000 nM
same,GI50,OVCAR-3 ovarian,202 nM
same,TGI,OVCAR-3 ovarian,12600 nM
same,GI50,BT-549 breast,317 nM
same,TGI,BT-549 breast,1950 nM
same,GI50,SN12C renal,473 nM
same,TGI,SN12C renal,12500 nM
same,GI50,SK-MEL-2 melanoma,764 nM
same,TGI,SK-MEL-2 melanoma,20000 nM
same,GI50,HOP-92 NSCLC,2440 nM
same,TGI,HOP-92 NSCLC,25000 nM
same,GI50,TK-10 renal,13500 nM
same,TGI,TK-10 renal,85000 nM
same,GI50,T-47D breast,3120 nM
same,TGI,T-47D breast,48500 nM
same,GI50,SNB-19 CNS,1840 nM
same,TGI,SNB-19 CNS,66400 nM
same,GI50,RPMI-8226 leukemia,236 nM
same,TGI,RPMI-8226 leukemia,16600 nM
same,GI50,UO-31 renal,578 nM
same,TGI,UO-31 renal,24200 nM
same,GI50,NCI-H23 lung,696 nM
same,TGI,NCI-H23 lung,18900 nM
same,GI50,DU-145 prostate,435 nM
same,TGI,DU-145 prostate,32900 nM
same,GI50,CAKI-1 renal,315 nM
same,TGI,CAKI-1 renal,25000 nM
same,GI50,SF-539 CNS,190 nM
same,TGI,SF-539 CNS,943 nM
same,GI50,SK-MEL-5 melanoma,260 nM
same,TGI,SK-MEL-5 melanoma,1830 nM
same,GI50,HOP-62 NSCLC,512 nM
same,TGI,HOP-62 NSCLC,18100 nM
same,GI50,SF-295 CNS,189 nM
same,TGI,SF-295 CNS,13800 nM
same,GI50,A498 renal,19500 nM
same,TGI,A498 renal,46500 nM
same,GI50,HS 578T breast,202 nM
same,TGI,HS 578T breast,13200 nM
same,GI50,HCT-15 colon,256 nM
same,TGI,HCT-15 colon,12800 nM
same,GI50,HL-60(TB) leukemia,199 nM
same,TGI,HL-60(TB) leukemia,656 nM
same,GI50,NCI-H522 lung,163 nM
same,TGI,NCI-H522 lung,699 nM
same,GI50,RXF 393 renal,287 nM
same,TGI,RXF 393 renal,26700 nM
same,GI50,SNB-75 CNS,234 nM
same,TGI,SNB-75 CNS,21500 nM
same,GI50,IGROV1 ovarian,600 nM
same,TGI,IGROV1 ovarian,15600 nM
same,GI50,SF-268 CNS,817 nM
same,TGI,SF-268 CNS,17900 nM
same,GI50,MDA-MB-435,76.4 nM
same,TGI,MDA-MB-435,525 nM
same,GI50,OVCAR-5 ovarian,563 nM
same,TGI,OVCAR-5 ovarian,22500 nM
same,GI50,NCI-H226 lung,1750 nM
same,TGI,NCI-H226 lung,27600 nM
same,GI50,786-0 renal,509 nM
same,TGI,786-0 renal,17700 nM
same,GI50,COLO 205 colon,353 nM
same,TGI,COLO 205 colon,1970 nM
same,GI50,HCC-2998 colon,399 nM
same,TGI,HCC-2998 colon,13000 nM
same,GI50,CCRF-CEM leukemia,228 nM
same,TGI,CCRF-CEM leukemia,21700 nM
same,GI50,UACC-62 melanoma,299 nM
same,TGI,UACC-62 melanoma,16000 nM
same,GI50,EKVX NSCLC,872 nM
same,TGI,EKVX NSCLC,29300 nM
same,GI50,HT29 colon,272 nM
same,TGI,HT29 colon,4750 nM
same,GI50,MCF7 breast,132 nM
same,TGI,MCF7 breast,13400 nM
